Data as given in ChEMBL document CHEMBL5316338, “Discovery of Novel PTP1B Inhibitors with Once-Weekly Therapeutic Potential for Type 2 Diabetes: Design, Synthesis, and In Vitro and In Vivo Investigations of BimBH3 Peptide Analogues” (J Med Chem, 2023).
pIC50: −log10 of the molar value. Calls of active or inactive are those of the source. No cut-off for these calls is given here. Square brackets hold non-standard residues; d marks the D form. Peptide text beside a SMILES is read from it. * marks the point of attachment. ξ: configuration not given here. C18 diacid = O=C(O)CCCCCCCCCCCCCCCCC(=O)*; Myristoyl = CCCCCCCCCCCCCC(=O)*; ξR = N=C(N)NCCCC(N)C(=O)O

Tests used:
carboxypeptidase A = target: T1, carboxypeptidase A (Homo sapiens, UniProt P15085); test: Stability of compound assessed as carboxypeptidase A (unknown origin) mediated compound degradation by measuring half-life by RP-HPLC analysis; type: ADME
T1 sequence (P15085 whole entry): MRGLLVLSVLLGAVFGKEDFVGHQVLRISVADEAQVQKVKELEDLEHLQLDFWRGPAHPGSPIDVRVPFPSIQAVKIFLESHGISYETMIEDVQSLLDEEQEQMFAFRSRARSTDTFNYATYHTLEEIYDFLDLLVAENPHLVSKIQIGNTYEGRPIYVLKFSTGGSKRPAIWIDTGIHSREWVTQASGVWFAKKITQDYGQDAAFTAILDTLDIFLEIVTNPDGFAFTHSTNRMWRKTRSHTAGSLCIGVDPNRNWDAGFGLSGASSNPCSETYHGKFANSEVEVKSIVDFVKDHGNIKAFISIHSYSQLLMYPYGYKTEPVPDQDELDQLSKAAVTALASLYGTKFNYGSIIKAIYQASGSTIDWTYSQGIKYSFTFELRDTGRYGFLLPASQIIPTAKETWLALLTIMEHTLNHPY

Mus musculus [1] = test: Antidiabetic activity against sc dosed C57BL/Ks db/db mouse assessed as reduction in C-peptide level at 1 umol/kg by ELISA analysis; type: functional, organism-based; details: dose 1.0 µmol/kg
Mus musculus [2] = test: Antidiabetic activity against C57BL/Ks db/db mouse assessed as redcution in fasting blood glucose level at 1 umol/kg, sc administered once a week and measured on day 15 by glucometer analysis (reference value: 27.3 +/- 2.4 […]); type: functional; details: dose 1 µmol/kg, time 15 day
Mus musculus [3] = test: Antidiabetic activity against C57BL/Ks db/db mouse assessed as redcution in fasting blood glucose level at 1 umol/kg, sc administered once a week and measured on day 24 by glucometer analysis (reference value: 30.2 +/- 3.2 […]); type: functional; details: dose 1 µmol/kg, time 24 day
Mus musculus [4] = test: Antidiabetic activity against over-night fasted C57BL/ks db/db mouse assessed as suppression of increased blood glucose concentration at 1 uM/kg, sc pretreated with compound for 4 weeks followed by insulin stimulation and measured for 90 mins by insulin tolerance test; type: functional, organism-based; details: time 40410.0 min
[5] = target: T2, Tyrosine-protein phosphatase non-receptor type 2 (Homo sapiens, UniProt P17706); test: Inhibition of recombinant human TC-PTP (1 to 314 residues) expressed in baculovirus infected insect cells using pNPP as substrate assessed as substrate hydrolysis; set-up: species or system Insect cell
T2 sequence (P17706 whole entry): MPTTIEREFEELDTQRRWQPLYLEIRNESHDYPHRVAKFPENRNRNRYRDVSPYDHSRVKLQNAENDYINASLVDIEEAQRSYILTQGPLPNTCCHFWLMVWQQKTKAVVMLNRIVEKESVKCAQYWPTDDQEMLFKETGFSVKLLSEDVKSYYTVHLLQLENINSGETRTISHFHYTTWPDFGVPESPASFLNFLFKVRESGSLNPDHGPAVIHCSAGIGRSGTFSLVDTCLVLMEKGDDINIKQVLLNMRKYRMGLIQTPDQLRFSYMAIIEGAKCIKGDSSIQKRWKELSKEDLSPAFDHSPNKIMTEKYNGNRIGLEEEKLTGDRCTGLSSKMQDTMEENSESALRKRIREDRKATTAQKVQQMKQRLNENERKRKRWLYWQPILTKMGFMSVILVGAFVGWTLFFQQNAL

Mus musculus [6] = test: Antidiabetic activity against C57BL/Ks db/db mouse assessed as redcution in fasting blood glucose level at 1 umol/kg, sc administered once a week and measured on day 28 by glucometer analysis (reference value: 32.4 +/- 1.1 […]); type: functional; details: dose 1 µmol/kg, time 28 day
Mus musculus [7] = test: Antidiabetic activity against over-night fasted C57BL/ks db/db mouse assessed as suppression of increased blood glucose concentration at 1 uM/kg, sc pretreated with compound for 4 weeks followed by oral glucose stimulation and measured upto 120 mins by oral glucose tolerance test; type: functional, organism-based; details: time 40440.0 min
[8] = Stability of compound assessed as Pepsin (unknown origin) mediated compound degradation by measuring fold change of half-life by HPLC analysis relative to BimBH312-mer peptide; type: ADME; details: human
Mus musculus [9] = test: Antidiabetic activity against C57BL/Ks db/db mouse assessed as redcution in fasting blood glucose level at 1 umol/kg administered subcutaneously and measured immediately by glucometer analysis (reference value: 19.0 +/- 2.7 […]); type: functional; details: dose 1 µmol/kg; route sc
Carboxypeptidase A1 = target: T3, Carboxypeptidase A1 (Homo sapiens, UniProt P15085); test: Stability of compound assessed as carboxypeptidase A (unknown origin) mediated compound degradation by measuring fold change of half-life by RP-HPLC analysis relative to BimBH312-mer peptide; type: ADME
T3 sequence (P15085 whole entry): T1 sequence (P15085 whole entry)

Proteinase K = test: Stability of compound assessed as Proteinase K (unknown origin) mediated compound degradation by measuring half-life by HPLC analysis; type: ADME
[10] = target: T4, Tyrosine-protein phosphatase non-receptor type 1 (Homo sapiens) (UniProt P18031); test: Inhibition of N-terminal His tagged recombinant human PTP1B expressed in Escherichia coli using pNPP as substrate assessed as substrate hydrolysis at 40 umol/L relative to control; details: dose 40.0 µmol/L
T4 sequence (whole entry): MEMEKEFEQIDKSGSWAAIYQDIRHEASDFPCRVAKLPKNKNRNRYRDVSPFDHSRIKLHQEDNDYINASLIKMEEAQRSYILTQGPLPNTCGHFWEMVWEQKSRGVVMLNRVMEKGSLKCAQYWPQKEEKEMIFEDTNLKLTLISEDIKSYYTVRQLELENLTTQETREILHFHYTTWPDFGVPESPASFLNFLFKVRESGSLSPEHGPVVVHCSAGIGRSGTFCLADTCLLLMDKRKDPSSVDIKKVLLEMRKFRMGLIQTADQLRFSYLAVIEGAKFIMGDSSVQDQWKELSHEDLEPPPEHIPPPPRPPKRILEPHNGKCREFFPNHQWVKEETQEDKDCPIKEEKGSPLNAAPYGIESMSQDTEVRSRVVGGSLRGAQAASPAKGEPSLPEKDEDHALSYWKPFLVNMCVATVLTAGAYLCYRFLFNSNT

Pepsin = test: Stability of compound assessed as Pepsin (unknown origin) mediated compound degradation by measuring half-life by HPLC analysis; type: ADME; details: human
Mus musculus [11] = test: Antidiabetic activity against C57BL/Ks db/db mouse assessed as redcution in fasting blood glucose level at 1 umol/kg, sc administered once a week and measured on day 8 by glucometer analysis (reference value: 27.7 +/- 3.7 […]); type: functional; details: dose 1 µmol/kg, time 8 day
[12] = target: T5, Tyrosine-protein phosphatase non-receptor type 2 (Homo sapiens) (UniProt P17706); test: Inhibition of recombinant human TC-PTP (1 to 314 residues) expressed in baculovirus infected insect cells using pNPP as substrate assessed as substrate hydrolysis at 50 umol/L relative to control; details: Insect cell, dose 50.0 µmol/L
T5 sequence (whole entry): T2 sequence (P17706 whole entry)

Homo sapiens = species on record: Homo sapiens; test: Selectivity index, ratio of IC50 for inhibition of recombinant human TC-PTP (1 to 314 residues) expressed in baculovirus infected insect cells to IC50 for inhibition of N-terminal His-tagged recombinant human PTP1B expressed in Escherichia coli
[13] = Toxicity in C57BL/Ks db/db mouse assessed as signs of distress at 1 uM/kg, sc administered for 2 weeks; type: organism-based; details: in vivo, 336 h

Row | Compound | half-life (carboxypeptidase A) [min] | Activity (Mus musculus [1]) | Fasting blood glucose (Mus musculus [2]) [mmol/L] | Fasting blood glucose level (Mus musculus [3]) [mmol/L] | Activity (Mus musculus [4]) | pIC50 [5] | Fasting blood glucose level (Mus musculus [6]) [mmol/L] | Activity (Mus musculus [7]) | fold change (FC) [8] | Fasting blood glucose level (Mus musculus [9]) [mmol/L] | fold change (FC) (Carboxypeptidase A1) | half-life (Proteinase K) [min] | inhibition [10] [%] | half-life (Pepsin) [min] | Fasting blood glucose level (Mus musculus [11]) [mmol/L] | inhibition [12] [%] | Ratio IC50 (Homo sapiens) | Activity [13]
1 | CCCCCCCCCCCCCC(=O)N[C@H](C(=O)N[C@@H](C)C(=O)N[C@@H](CCC(N)=O)C(=O)N[C@@H](CCC(=O)O)C(=O)N[C@@H](CC(C)C)C(=O)N[C@@H](CCCNC(=N)N)C(=O)NC(CCCNC(=N)N)C(=O)N[C@H](C(=O)NCC(=O)N[C@@H](CC(=O)O)C(=O)N[C@@H](CCC(=O)O)C(=O)N[C@@H](Cc1ccccc1)C(=O)O)[C@@H](C)CC)[C@@H](C)CC (stereo partly specified) (Myristoyl-IAQELR[ξR]IGDEF-OH) | 61.2 | Active | 8.3 | 14.2 | Active | < 4.30 | 15.6 | Active | 29.5 | 20.9 | 31.9 | 17.4 | > 50 | 39 | 10.3 | < 50 | > 190 | Non-Toxic
2 | CC[C@H](C)[C@H](NC(=O)CCCCCCCCCCCCCCCCC(=O)O)C(=O)N[C@@H](C)C(=O)N[C@@H](CCC(N)=O)C(=O)N[C@@H](CCC(=O)O)C(=O)N[C@@H](CC(C)C)C(=O)N[C@@H](CCCNC(=N)N)C(=O)NC(CCCNC(=N)N)C(=O)N[C@H](C(=O)NCC(=O)N[C@@H](CC(=O)O)C(=O)N[C@@H](CCC(=O)O)C(=O)N[C@@H](Cc1ccccc1)C(=O)O)[C@@H](C)CC (stereo partly specified) ({C18 diacid}-IAQELR[ξR]IGDEF-OH) | 271 | Active | 8.7 | 14.3 | Active | < 4.30 | 18.4 | Active | 307.7 | 19.8 | 140.9 | 7.8 | > 50 | 406 | 11.1 | < 50 | > 130 | Non-Toxic
